≈ marks a conversion by molar mass, not a printed value.
Key:
[1] = molecular target: T1, Tripartite terminase subunit 3 (Human betaherpesvirus 5, UniProt P16732)
T1 sequence (P16732 whole entry): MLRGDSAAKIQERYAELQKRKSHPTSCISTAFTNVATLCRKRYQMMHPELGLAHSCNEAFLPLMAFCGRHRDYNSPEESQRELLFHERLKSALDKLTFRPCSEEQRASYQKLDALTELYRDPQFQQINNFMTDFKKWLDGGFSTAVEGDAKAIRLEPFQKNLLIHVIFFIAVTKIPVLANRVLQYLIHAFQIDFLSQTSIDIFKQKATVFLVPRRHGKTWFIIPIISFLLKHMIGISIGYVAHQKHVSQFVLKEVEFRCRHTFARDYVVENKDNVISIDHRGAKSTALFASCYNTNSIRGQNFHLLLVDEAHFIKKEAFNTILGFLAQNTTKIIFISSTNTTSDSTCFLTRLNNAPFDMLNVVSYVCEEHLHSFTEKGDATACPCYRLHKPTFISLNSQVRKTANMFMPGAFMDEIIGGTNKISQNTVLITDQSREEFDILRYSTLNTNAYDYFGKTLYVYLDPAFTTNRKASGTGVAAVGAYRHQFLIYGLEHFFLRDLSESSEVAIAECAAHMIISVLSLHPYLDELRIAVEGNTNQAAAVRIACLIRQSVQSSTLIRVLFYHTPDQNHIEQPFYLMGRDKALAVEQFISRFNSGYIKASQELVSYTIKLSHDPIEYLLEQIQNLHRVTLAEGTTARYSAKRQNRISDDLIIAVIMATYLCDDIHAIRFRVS

[2] = human, microsomes, 1 h
Description: Stability in human liver microsomes assessed as half life measured upto 60 mins in presence of NADPH by LC-MS/MS analysis

[3] = human, plasma, 24 h
[4] = Stability of compound in human plasma as compound remaining measured for 6 hrs by LC-MS/MS analysis; format: ADME, cell-free; settings: read-out: Stability
[5] = mouse, plasma, 24 h
[6] = Aqueous solubility of the compound in DPBS at pH 7.2 incubated for 72 hrs by LC-MS/MS analysis; format: physicochemical
[7] = Stability of compound in CD-1 mouse plasma as compound remaining measured for 6 hrs by LC-MS/MS analysis; format: ADME, cell-free; settings: read-out: Stability
HFF = test: Cytotoxicity against HFF cells assessed as cell viability incubated for 168 hrs by MTS-based Cell Titer assay; format: toxicity; settings: human
[8] = mouse, microsomes, 1 h
Description: Stability in mouse liver microsomes assessed as half life measured upto 60 mins in presence of NADPH by LC-MS/MS analysis

[9] = Apparent permeability coefficient of the compound incubated for 5 hrs by LC-MS/MS analysis based PAMPA method; format: ADME

SMILES | IC50 [1] [µM] | further results
O=C(O)c1nc(-c2ccsc2)nc(O)c1O | 2.7 | 
O=C(O)c1nc(Cc2ccc(F)cc2)[nH]c(=O)c1O | 0.74 | 
O=C(O)c1nc(-c2cccs2)nc(O)c1O |  | t1/2 [2]: > 120 h; t1/2 [3]: > 24 h; remaining at 6 h [4]: > 94%; t1/2 [5]: > 24 h; solubility thermodynamic at 72 h [6]: 1480 µM (≈ 352 µg/mL); remaining at 6 h [7]: > 94%; CC50 (HFF): > 100 µM; t1/2 [8]: > 120 h
COC(=O)c1nc(-c2cccs2)nc(O)c1O | 0.88 | permeability [9]: 0.9 10^-6 cm/s
O=C(NCc1ccc(F)cc1)c1nc(-c2cccs2)nc(O)c1O | 0.7 | 
O=C(NCc1ccc(Cl)cc1)c1nc(-c2cccs2)nc(O)c1O | 1.3 | 
Cc1ccc(CNC(=O)c2nc(-c3cccs3)nc(O)c2O)cc1 | 1.9 | 
COC(=O)c1nc(-c2ccccc2)[nH]c(=O)c1O | 1.1 | 
Cc1ccsc1-c1nc(O)c(O)c(C(=O)O)n1 | 1.4 | 
Cc1nc(C(=O)O)c(O)c(=O)[nH]1 | 2.1 | 
COC(=O)c1nc(-c2ccc(F)cc2)[nH]c(=O)c1O | 0.86 | 
O=C(O)c1nc(Cc2ccsc2)[nH]c(=O)c1O | 2.4 | 
COC(=O)c1nc(Cc2ccc(Cl)c(Cl)c2)[nH]c(=O)c1O | 2.1 | permeability [9]: 3.1 10^-6 cm/s
Cc1ccc(Cc2nc(C(=O)O)c(O)c(=O)[nH]2)cc1 | 0.92 | permeability [9]: 0.07 10^-6 cm/s
COC(=O)c1nc(Cc2ccc(Cl)cc2Cl)[nH]c(=O)c1O | 5.7 | 
O=C(O)c1nc(-c2ccc(F)cc2)[nH]c(=O)c1O | 0.54 | 
COC(=O)c1nc(-c2ccco2)[nH]c(=O)c1O | 3 | 
Cc1nc(C(=O)NCc2ccc(Cl)c(Cl)c2)c(O)c(=O)[nH]1 | 2.8 | 
O=C(O)c1nc(-c2ccc(-c3ccccc3)cc2)[nH]c(=O)c1O | 1.5 | permeability [9]: 0.06 10^-6 cm/s
O=C(NCc1ccc(F)c(F)c1)c1nc(-c2cccs2)[nH]c(=O)c1O | 0.79 | 
O=C(O)c1nc(Cc2ccc(F)c(F)c2)[nH]c(=O)c1O | 0.87 | 
O=C(NCc1ccc(C(F)(F)F)cc1)c1nc(-c2cccs2)[nH]c(=O)c1O | 3 | 
O=C(O)c1nc(Cc2ccc(Cl)cc2Cl)[nH]c(=O)c1O | 3.8 | 
O=C(O)c1nc(Cc2cccs2)[nH]c(=O)c1O | 1.7 | 
COC(=O)c1nc(Cc2ccc(F)cc2F)[nH]c(=O)c1O | 0.76 | 
COC(=O)c1nc(-c2ccc(-c3ccccc3)cc2)[nH]c(=O)c1O | 0.78 | 
COc1ccc(CNC(=O)c2nc(C)[nH]c(=O)c2O)cc1 | 0.59 | permeability [9]: 12.4 10^-6 cm/s
O=C(O)c1nc(Cc2ccc(F)cc2F)[nH]c(=O)c1O | 1.4 | 
O=C(O)c1nc(Cc2ccc(Cl)c(Cl)c2)nc(O)c1O | 0.67 | t1/2 [2]: > 120 h; t1/2 [3]: > 24 h; remaining at 6 h [4]: > 94%; t1/2 [5]: > 24 h; solubility thermodynamic at 72 h [6]: ≥ 3170 µM; permeability [9]: 0.05 10^-6 cm/s; remaining at 6 h [7]: > 94%; t1/2 [8]: > 120 h
